From US6541468B1, “Indolocarbazole derivatives useful for the treatment of neurodegenerative diseases and cancer” (Bayer Corporation, priority 1998, dated 2003)
Read-outs that look alike come from different tables or passages of the source.

Key:
cdc2 kinase = target: T1, cdc2 kinase (Homo sapiens, UniProt P06493); assay: cdc2 kinase inhibition assay; assay type: biochemical; conditions: 0.25 mM ATP, human recombinant tau substrate
T1 construct: Human cdc2 kinase was prepared from nocodazole-arrested HeLa cells; endogenous in cells; host or cells: nocodazole-arrested HeLa cells
T1 sequence (P06493 whole entry): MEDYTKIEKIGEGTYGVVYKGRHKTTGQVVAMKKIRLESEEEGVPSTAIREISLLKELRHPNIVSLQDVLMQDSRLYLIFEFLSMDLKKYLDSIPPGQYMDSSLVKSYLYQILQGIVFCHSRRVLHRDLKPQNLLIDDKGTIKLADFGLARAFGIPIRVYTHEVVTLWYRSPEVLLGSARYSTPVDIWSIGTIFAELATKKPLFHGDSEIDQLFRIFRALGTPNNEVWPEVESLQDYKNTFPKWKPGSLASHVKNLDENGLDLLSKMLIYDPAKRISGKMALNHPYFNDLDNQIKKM
T1 sequence (P14635 whole entry partner): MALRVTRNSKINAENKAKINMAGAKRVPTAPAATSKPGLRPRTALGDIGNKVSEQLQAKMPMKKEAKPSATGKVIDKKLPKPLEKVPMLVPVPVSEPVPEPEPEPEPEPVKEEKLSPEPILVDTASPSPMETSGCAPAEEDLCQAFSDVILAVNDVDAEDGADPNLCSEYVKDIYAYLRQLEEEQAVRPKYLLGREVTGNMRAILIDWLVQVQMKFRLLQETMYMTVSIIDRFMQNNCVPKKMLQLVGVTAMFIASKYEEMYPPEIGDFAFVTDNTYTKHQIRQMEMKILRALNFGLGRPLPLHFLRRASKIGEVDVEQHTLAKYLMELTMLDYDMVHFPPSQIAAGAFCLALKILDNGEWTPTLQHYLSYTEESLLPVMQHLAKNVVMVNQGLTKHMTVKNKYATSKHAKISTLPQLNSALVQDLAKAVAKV
Description: Preparation of cdc2 Kinase: Human cdc2 kinase was prepared from nocodazole-arrested HeLa cells according to Marshak D. M. er al., J. Cell Biochem., 45, 391-400 (1991).
cdc2 kinase was assayed in 50 μl 25 mM HEPES, pH 7.0, 1 mM Mg^2+, 0.25 mM ATP (150-300 cpm/pmole), 1 mM DTT, using 0.5 ng cdc2 kinase, 5 μg human recombinant tau as substrate, and 0.1 mg/mL BSA a as carrier.
Enzyme, substrate and inhibitor were preincubated for 5-10 min at 4° C. in assay buffers containing a final concentration of 2% DMSO before initiating the reaction with 0.25 mM γ^2P-ATP. Samples were incubated for 30 min at 37° C. and reactions were terminated with 10% trichloracetic acid/2% sodium pyrophosphate (TCA/PPA), followed by filtration over a glass fiber filtermat (type A) with a cell harvester (Tomtec). The filtermats were washed twice for several hours with TCA/PPA until all background radioactivity was removed. Precipitable counts were quantitated directly on the filtermat with a microbeta scintillation counter system (Wallac-Pharmacia). Inhibitor data were subjected to curve fitting and IC50 values were calculated from these curves using the GraphIt program.

tau hyperphosphorylation = assay: Okadaic acid induced AD-like tau hyperphosphorylation in SY5Y cells; assay type: cell-based, human; conditions: for IC50: Homo sapiens
Description: SKNSH-SY 5Y cells were plated on fibronectin-coated 6 well (30 mm^2) culture dishes (Biocoat®, Collaborative Biomedical Products, Inc.) and grown to confluence in 5 mL of 50% D-MEM/50% F-12 Nutrient Mixture (Ham) supplemented with 15% heat-inactivated bovine serum (JRH Bioscience), 0.1 mM non-essential amino acids solution, 2 mM glutamine and pen/strep/fungizone (GibcoBRL Life Technologies, Inc.). Cell culture medium was changed every 48 hours.
For drug testing, cells were routinely pretreated with inhibitors in 1 mL (30 mm2) for 60 min at concentrations of 30 nM, 100 nM, 300 nM, […]. Compound stocks were all at 10 mM in DMSO and dilutions were made in DMSO. Cells were then treated with 1 μM okadaic acid (ammonium salt; LC Laboratories, dissolved at 1 mM in DMSO) for 90 min. All experiments, including controls, contained a final concentration of between 0.5 and 1% DMSO.
Cells were detached from 30 mm^2 plates and suspended into 1 mL of ice-cold PBS by gentle trituration, transferred into microcentrifuge tubes and sedimented for 12 seconds at 14,000×g. The supernatant was removed and cells were lysed in 250 μl cold homogenization buffer (50 mM MES, pH 5.8, 5 mM sodium pyrophosphate, 50 mM p-nitrophenylphosphate, 1 μM okadaic acid, 2 mM Na-orthovandate, 1 mM EDTA, 1 mM EGTA, 1 mM DTT, 10^ glycerol, 10 μM leupeptin, 1 μM pepstatin, 1 mg/mL aprotinin, 10 μM chymostatin, 1 mM PMSF, and 1% TRITON® x100) and vortexed briefly to aid in lysis. Cell debris was removed by centrifugation at 14,000×g for 5 minutes at 4° C. and cell supernatants were analyzed by anti-ERK2 and anti-tau Western-blotting as described below.
[…] of total cell lysate was run on a 10% tris-glycine polyacrylamide gels (Novex, 1.5 mm×10 well) at 100 volts for 2.5 hors and Western-blotted on nitrocellulose (Novex) overnight at 23 volts or 1.5 hrs at 100V in transfer buffer [Towbin et al. Proc. Natl. Acad. Sci. USA 76, 4350-4354 (1979]) at 4° C. Blots were analyzed for ERK2 and phosphotyrosine immunoreactivity with anti-ERK1+2 (Z033; Zymed Laboratories, Inc.; 1:5,000) and anti-phosphotyrosine (4G10; Upstate Biotechnology Inc.; 1:1,000) mAbs. Blots were also analyzed for phosphorylation-sensitive Tau immuno-reactivity with mAb Tau-1 (Boehringer Mannheim; 1:5,000) and phosphorylation dependent mAb AT8 against FHF-tau (Biosource International; 1:200). Total Tau populations were detected by Tau-1 immunoblotting after treating blots for 16 hrs at 37° C. with 100 units/mL alkaline phosphatase (Gibco BRL) in 5 mL of 50 mM Tris-HCI (pH 8.5), 0.1 mM EDTA. All blots were developed using ECL (enhanced chemiluminescence) Western blotting protocol (Amersham Life Science) with horseradish peroxidase-linked sheep anti-mouse secondary antibody and analyzed on Kodak X-OMAT AR scientific imaging film. Films were scanned into Adobe Photoshop and imported into NIH Image 1.44, where densitometric analysis was performed. Changes in tau phosphorylation were assessed by normalizing densitometrically determined mAb Tau-1 immunoreactivities in cell extracts to Tau-1 reaction after dephosphorylation on the blot. Ratios of Tau-1 reactivity prior to and after dephosphorylation were expressed in % relative to the ratio obtained from control cells not treated with okadaic acid (100%). Proteins isolated form neonatal rat brain were used for comparison in some experiments.
Correlation of potencies of inhibition of PK40 activity in vitro, and of OA-induced ERK2 and tau phosphorylation in SY5Y cells. ERK2 phosphorylation was quantified as the ratio of low mobility/total ERK2, densitometrically determined from ERK2 Western-blots (e.g. of FIG. 1). Tau hyperphosphorylation was expressed as densitometrically measured Tau-1 immunoreactivity normalized to total Tau-1 reactivity after unmasking of the epitope by phosphatase treatment of the blots.
Prevention of tau hyperphosphorylation by the preferred compound CIII (FIG. 1). […]

[1] = SY5Y, 1 μM okadaic acid, means of triplicate determinations, read-out: Inhibition in SY5Y cells of tau hyperphos. IC50

| Compound | IC50 (cdc2 kinase) | IC50 (tau hyperphosphorylation; [1]) | Effect on normal tau phosphorylation (tau hyperphosphorylation; SY5Y cells not treated by okadaic acid) | Fully effective doses for prevention of tau hyperphosphorylation (tau hyperphosphorylation; SY5Y cells, 1 μM okadaic acid) | Prevention of okadaic acid induced tau hyperphosphorylation (FIG. 1) (tau hyperphosphorylation; SY5Y cells, 1 μM okadaic acid, Tau-1 Western blot) | IC50 (tau hyperphosphorylation; SY5Y cells, okadaic acid, read-out: IC50 for prevention of tau hyperphosphorylation in SY5Y cells) |
| --- | --- | --- | --- | --- | --- | --- |
| COC(=O)[C@@]1(O)C[C@H]2C[C@@H]1n1c3ccccc3c3c4c(c5c6ccccc6n2c5c31)C(=O)NC4=O (relative stereo) [CIII, 9,12-Methano-1H-diindolo[1,2,3-fg:3′,2′,1′-kl]pyrrolo[3,4-I][1,6] benzodiazocine-10-carboxylic acid, 2,3,9,10,11,12-hexahydro-10-hydroxy-1,3-dioxomethyl ester, (9α,10β,12α)] | 3800 nM | 3600 nM | apparently not affected | > 1 µM | prevents the tau hyperphosphorylation in a dose dependent manner | – |
| CNC(=O)[C@]1(O)CC2CC1n1c3ccccc3c3c4c(c5c6ccccc6n2c5c31)C(=O)NC4=O (stereo partly drawn) [CII, 9,12-Methano-1H-diindolo[1,2,3-fg:3′,2′,1′-kl]pyrrolo[3,4-I][1,6] benzodiazocine-10-carboxamide, 2,3,9,10,11,12-hexahydro-10-hydroxy-N-methyl-1,3-dioxo-(9α,10β,12α)] | 44 nM | 580 nM | – | – | – | 100 nM |
